The results in this text go back to patent US5925369A, “Bis alkanoyl esters of carnitine having bactericidal, fungicidal and antiprotozoal activity” (priority 1996, dated 1999).

Experiment [1] has as its system yeast-like strains. Description: MIC on yeast-like strains (all lab collection strains). Particulars: 5 strains. Format: cell-based. The method, then: (§1) Overnight yeast cultures in Sabouraud broth are appropriately washed and diluted in Yeast Nitrogen Base supplemented with asparagine and glucose (Y.N.B.s.) to yield approximately 5.0×10^4 CFU/ml in microtiter wells. Substance dilutions (0.3 log) in Y.N.B.s. are added to these suspensions to a final concentration range from 0.19 to 100 mcg/ml. Microtiter plates are then incubated at 35° C. for 24-48 hours (See PFALLER M., RINALDI M. G., […] J. M., BARTLETT M. S., BODY B. A., ESPINEL-INGROFF A., FROMTLING R. A., HALL G. S., HUGHES G. E., ODDS F. C., SUGAR A. M., Collaborative investigator of variables in susceptibility testing of yeasts, Ant. Agent and Chemoth., 34, 9:1648-1656, 1990. COOK R., McINTYRE K. A., […] J. M., Effects of incubation temperature, inoculum size, and medium on agreement of macro and microdilution broth susceptibility test, results for yeasts, Ant. Agent and Chemoth., 34, 8:1542-1545, 1990. […] E., PAETZNICK V., BODEY G. P., Fluconazole susceptibility testing of "Candida albicans" microtiter method that is indipendent of inoculum size, temperature, and time of reaching, Ant. Agent and Chemoth., 35, 8:1641-1646, 1991).

For experiment [2], the system named is Aspergillus fumigatus. Description: MIC on filamentous fungi. Particulars: ATCC28212; Aspergillus fumigatus ATCC 28212, lab collection; read-out: Minimal Inhibitory Concentration. In kind it is cell-based. As for the experimental part: (§2) The conidia are collected from 72-hour cultures in Sabouraud agar by washing them with Sabouraud broth and 0.5% Tween 80. After a coarse filtration and washing, the resulting suspensions are adjusted to a final concentration of approx. 5.0×10^4 CFU/ml in a microtiter plate. The substances (0.3 log dilutions in Y.N.B.s.) are added to the fungal suspensions in order to generate a range of final concentrations from 0.19 to 100 mcg/ml. The microtiter plates are then incubated at 35° C. for 48-72 hours.

For experiment [3], the system named is Mucor mucedo. Description: MIC on filamentous fungi. In kind it is cell-based. The settings on record: ATCC7941; Mucor mucedo ATCC 7941, lab collection; read-out: Minimal Inhibitory Concentration. As for the experimental part: as §2
For experiment [4], the system named is Aspergillus niger. Nature of the experiment: MIC on filamentous fungi. In kind it is cell-based. The settings on record: ATCC16404; Aspergillus niger ATCC 16404, lab collection; read-out: Minimal Inhibitory Concentration. As for the experimental part:
as §2

Experiment [5] deals with Penicillium sp. Nature of the experiment: MIC on filamentous fungi. In kind it is cell-based. The settings on record: Penicillium sp. 1302, lab collection; read-out: Minimal Inhibitory Concentration. As for the experimental part:
as §2

In experiment [6] the test system is Fusarium sp. Description: MIC on filamentous fungi. Format: cell-based. Particulars: Fusarium sp. F 77, lab collection; read-out: Minimal Inhibitory Concentration. The method, then: as §2
Experiment [7] has as its system Eubacterium lentum. Nature of the experiment: MIC on anaerobic bacteria. Format: cell-based. Particulars: Eggerthella lenta; Eubacterium lentum IDI 3502, anaerobic, Gram positive clinical isolate (suppurative wound); read-out: Minimal Inhibitory Concentration. As for the experimental part: (§3) Bacteria from cultures in […].) medium on Petri dishes, grown overnight at 35° C. in an anaerobic jar, were resuspended in Brucella broth. The suspensions were adjusted to 1.0×10^8 cells/ml and distributed (0.2 ml/well) in microtiter plates (96-well U-bottomed plate). At the same time, 0.3 log dilutions of the substances are mixed with W. C. agar medium in four-sectioned Petri dishes, which are then seeded with the bacterial suspension by means of a multipoint inoculator (1.0×10^5 cells/spot). The plates are then incubated at 35° C. for 48 hours in an anaerobic jar) (See J. E. ROSENBLATT, Antimicrobial susceptibility testing of anaerobes, in Antibiotics in laboratory medicine. V. LORIAN Ed., II edition, 6, 159-180, Williams & Wilkins, Baltimora, Md 21202 U.S.A.).

In experiment [8] the test system is Propionibacterium acnes. Nature of the experiment: MIC on anaerobic bacteria. In kind it is cell-based. Particulars: Cutibacterium acnes; Propionibacterium acnes IDI 3482, anaerobic, Gram positive clinical isolate (suppurative acne); read-out: Minimal Inhibitory Concentration. As for the experimental part:
as §3

For experiment [9], the system named is Bacteroides fragilis. Description: MIC on anaerobic bacteria. Format: cell-based. The settings on record: ATCC25285; Bacteroides fragilis ATCC 25285, anaerobic, Gram negative, lab collection; read-out: Minimal Inhibitory Concentration. As for the experimental part: as §3
The test system of experiment [10] is Staphylococcus aureus LC1. Nature of the experiment: In vivo antiinfective effect on topical mixed infection in mice. Also noted: species or system BALB/c mice. Particulars: for S. aureus: Not cured animals (mean CFU/mouse) / S. aureus: Cured animals: 50 mg/day of 1% gel, topical, 5 days; for S. aureus: Cured animals: 5 animals/group; for activity on S. aureus, ST 1226 and ST 1103 compared: mixed topical infection. The method, then:
Male inbred BALB/c mice (C. RIVER), aged 6 weeks were used (5 animals per group).
The animals were topically infected with pathogenic strains of Tricophyton (Tricophyton quinckeanum NCPF 309) and Staphylococcus (Staphylococcus aureus LC1).
Suspensions of fungal microaleuriospores and bacteria were adjusted to a final concentration of 5.0×10^7 and 1.0×10^7 cells/ml, respectively. Volumes of 0.2 ml of each suspension were applied onto the upper posterior zone of the animals, which had previously been shaved and gently abraded with a scalpel blade until "glistening". Treatment started 30 hours after the inocula by administering 50 mg of each substance in a gel form (1% test article) on the infected skin once a day for 5 consecutive days. Two days following the last treatment, animals were sacrificed and infected tissue samples were collected. Following homogenization and appropriate dilution in medium, tissue samples were plated (in Mycobiotic agar and Mannitol Salt agar for fungi and bacteria, respectively) to selectively assess the growth of the pathogens. Fungal growth is evaluated by means of an arbitrary scale, while bacterial growth is evaluated by determining the CFUs (Colony Forming Units).

The subject of experiment [11] is filamentous fungi. Nature of the experiment: MIC on filamentous fungi (all strains). In kind it is cell-based. The settings on record: for MIC: lab collection, 5 strains. As for the experimental part:
as §2

The test system of experiment [12] is Candida strains. Nature of the experiment: MIC on Candida strains (all clinical isolates). Format: cell-based, Candida albicans. Particulars: for MIC: Candida clinical isolates, 10 strains. The method, then:
as §1

Turning to `CCCCCCCCCCCOC(=O)C[C@H](C[N+](C)(C)C)OC(=O)CC(C)C` [ST 1103, isovaleryl L-carnitine undecyl ester methanesulfonate, reference compound], the MIC in [1] came to 2.8 µg/mL; in experiment [2], 12.5 µg/mL; in experiment [3], 50 µg/mL; in experiment [4], 12.5 µg/mL; in experiment [5], 12.5 µg/mL; in experiment [6], 6.25 µg/mL. Moreover, the MIC in experiment [7] amounted to 3.12 µg/mL; in [8], 6.25 µg/mL; in experiment [9], 25 µg/mL; in experiment [11], 18.8 µg/mL; in experiment [12], 4.68 µg/mL. The “S. aureus: Not cured animals (mean CFU/mouse)” value in [10] is on record as 40 CFU/mouse. For the same compound, the “S. aureus: Cured animals” value in experiment [10] stood at 80%. Further, the “activity on S. aureus, ST 1226 and ST 1103 compared” value in [10] is given as “identical activity on S. aureus”.

As for `CCCCCCCCCCC(=O)O[C@H](CC(=O)OCc1ccc(COC(=O)C[C@H](C[N+](C)(C)C)OC(=O)CCCCCCCCCC)cc1)C[N+](C)(C)C` [ST 1226, bis(undecanoyl L-carnitine chloride)p-xylilene diester], the MIC in experiment [1] was 2.49 µg/mL; in experiment [2], 6.25 µg/mL; in experiment [3], 25 µg/mL; in experiment [4], 6.25 µg/mL; in [5], 1.56 µg/mL; in [6] it was 3.12 µg/mL. In addition, the MIC was 6.25 µg/mL in experiment [7]; 6.25 µg/mL in [8]; 12.5 µg/mL in experiment [9]; 8.43 µg/mL in experiment [11]; 2.49 µg/mL in experiment [12]. For the same compound, in experiment [10], the “S. aureus: Not cured animals (mean CFU/mouse)” value came to 50 CFU/mouse. Also, the “S. aureus: Cured animals” value in experiment [10] is 80%. In addition, the “activity on S. aureus, ST 1226 and ST 1103 compared” value in [10] is “identical activity on S. aureus”. The “activity compared with ST 1103” value in experiment [11] (single results and mean MIC) is “markedly higher activity than ST 1103”; in [12] (yeast-like strains, mostly Candida clinical isolates), “higher activity than ST 1103, mostly against Candida clinical isolates”.
